Patent US9174916B2, “Compounds and uses thereof for treating inflammation and modulating immune responses” (PURAPHARM COMPANY LIMITED, priority 2009, dated 2015)

Legend:
Assay type in all cases: cell-based, human
p38 MAPK = experiment: LPS-induced phosphorylation of p38 MAPK in PBMac, Western blot; conditions: B22EES1-8-3 140 μM for 24 h, then 10 ng/mL LPS for 15 min
Description: (§1) FIGS. 6A-6C show the effects of B22EES1-8-3 on LPS-induced phosphorylation (phospho-) of ERK1/2 and p38 MAP kinases, and nuclear translocation of NF-κB p65. PBMac were incubated with B22EES1-8-3 (140 μM) for 24 h prior to the addition of 10 ng/mL LPS for an additional 15 min. Cytoplasmic (A, B) and nuclear (C) proteins were harvested for Western Blotting: (A) Cytoplasmic proteins: phospho-ERK1/2 and total ERK1/2. (B) Cytoplasmic proteins: phospho-p38 and total p38 kinase. (C) Nuclear proteins: upper panel, NF-κB p65 and lamin B; lower panel, the intensity of corresponding lanes in the gel photograph of NF-κB p65 was shown. The results shown are representative of at least three independent experiments, with cells obtained from different donors. * P<0.05, compared with the corresponding control. […]
(§2) Whole cell lysate (20 μg) or nuclear protein (2 μg) were separated by sodium dodecyl sulfate polyacrylamide gel electrophoresis (SDS-PAGE) and transferred to nitrocellulose membranes for probing overnight with the respective antibodies specific for the phosphorylated or total form of ERK1/2 and p38 MAPK (Cell Signaling Technology, Beverly, Mass.), NF-κB p65 protein and lamin B (Santa Cruz Biotechnology, Santa Cruz, Calif.). […] In order to quantify the results from the Western blots, the gels were scanned and the intensity of the bands was analyzed by a computer program Quantity One from BioRad. […]

ERK1/2 = experiment: LPS-induced phosphorylation of ERK1/2 in PBMac, Western blot; conditions: B22EES1-8-3 140 μM for 24 h, then 10 ng/mL LPS for 15 min
Description: as §1, §2

NF-κB p65 = experiment: LPS-induced nuclear translocation of NF-κB p65 in PBMac, Western blot of nuclear proteins; conditions: B22EES1-8-3 140 μM for 24 h, then 10 ng/mL LPS for 15 min, nuclear fraction
Description: as §1, §2

TNF-α = experiment: LPS-induced TNF-α production in primary blood macrophages, ELISA of culture supernatants; conditions: for inhibition of LPS-induced TNF-α protein production: 140 μM B22EES1-8-3 for 24 hr, mean±S.D. of 6 experiments
Description: FIGS. 5A-5B show inhibition of LPS-induced TNF-α production by B22EES1-8-3 and dexamethasone. PBMac were incubated with (A) 140 μM B22EES1-8-3 or (B) 1.3 or 5.1 μM dexamethasone (Dex) for 24 hr prior to the addition of 1 ng/mL and 10 ng/mL LPS for another 24 hr. The culture supernatants were collected and assayed for TNF-α by ELISA. The results shown were the mean values±standard derivation (S.D.) of 6 independent experiments, with cells obtained from different donors. * P<0.05, compared with the corresponding control.
Human peripheral blood monocytic cells (PBMC) were isolated from the buffy coat of healthy donor blood supplied by Hong Kong Red Cross by Ficoll-Paque (Amersham Pharmacia Biotech, Piscataway, N.J.) density gradient centrifugation as described in our previous reports^14,15,34. In brief, the buffy coat was spun at 3000 rotations per min (rpm) for 15 min to separate the blood cells and the plasma. The heat inactivated serum was filtered for future use.
The adherent monocytic cells were detached and seeded onto tissue culture plates and incubated for another 7-14 days in order to differentiate the primary blood monocytic cells to primary blood macrophages (PBMac).
Culture supernatants of the LPS-treated PBMac, with or without B22EES1-8-3 pretreatment, were collected at different time intervals and stored at −70° C. The levels of the secreted TNF-α were measured by ELISA kits specific for the cytokine (R&D system, Minneapolis, Minn.).
To confirm the activities of B8-3 in suppressing TNF-α production, B8-3 was incubated with PBMac for 24 hr prior the addition of LPS at concentrations of 1 ng/mL and 10 ng/mL for 24 hr. The culture supernatants were collected and measured by ELISA for the level of secreted TNF-α.
To further compare the efficiency of B8-3 with existing drugs, dexamethasone, a potent immunosuppressive corticosteroid, was used as a prototype. PBMac were treated with dexamethasone for 24 hr prior to the addition of LPS at concentrations of 1 ng/mL and 10 ng/mL for 24 hr.

SMILES	effect on LPS-induced phosphorylation of p38 MAPK (p38 MAPK)	effect on LPS-induced phosphorylation of ERK1/2 (ERK1/2)	effect on nuclear translocation of NF-κB p65 (NF-κB p65)	inhibition of LPS-induced TNF-α protein production (TNF-α; PBMac, then LPS 1 ng/mL for 24 hr)	inhibition of LPS-induced TNF-α protein production (TNF-α; PBMac, then LPS 10 ng/mL for 24 hr)	amelioration of LPS-upregulated TNF-α production (TNF-α; summary statement, FIG. 5A, LPS concentration not stated)	inhibition at 1.3 µM (TNF-α; Homo sapiens, Macrophage, PBMac, dexamethasone 1.3 μM for 24 hr, then LPS (1 and 10 ng/mL used) for 24 hr)	inhibition at 5.1 µM (TNF-α; Homo sapiens, Macrophage, PBMac, dexamethasone 5.1 μM for 24 hr, then LPS (1 and 10 ng/mL used) for 24 hr)
COc1ccc(/C=C/C(=O)OCC(=O)Cc2ccc(O)c(O)c2)cc1O [B8-3]	not p38 MAPK induced by LPS was suppressed	suppressed	reduced the amount of p65NF-kB in the nuclear fraction	47±19%	58±30%	over 50%		
C[C@@H]1C[C@H]2[C@@H]3CCC4=CC(=O)C=C[C@]4(C)[C@@]3(F)[C@@H](O)C[C@]2(C)[C@@]1(O)C(=O)CO [dexamethasone, reference compound]							32 ± 7.5%	25 ± 6.3%
